Structures can show the parent of a compound that is named as a salt.
Tests used:
[1] = test system: SMN2 mRNA; test: Splicing RT-qPCR panel, SMN2 canonical junction (CJ) mRNA; format: cell-based, human; conditions: Homo sapiens, read-out: SMN2 CJ (decrease in CJ mRNA levels, IC50)
Procedure, shortened: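 A673 cells (DMEM, 10% FBS) or K562 cells (IMDM, 10% FBS) treated 24 h at 37 °C with an 11-point 3-fold dilution, top 10 uM, DMSO ≤0.25%. Canonical-junction mRNA quantified in lysates by RT-qPCR, normalised to GAPDH, GUSB or PPIA and to DMSO (2^−ΔΔCt), then converted to % response.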

[2] = test system: HiBiT-tagged MYB protein; test: HiBiT protein abundance assay, MYB (K562 HiBiT knock-in); format: cell-based, human; conditions: HiBiT knock-in cells, 24 hours
Procedure, shortened: (§1)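 Endogenously HiBiT-tagged K562 knock-in lines treated 24 h at 37 °C with 10-point 3-fold dilutions (top 10 μM final, DMSO ≤0.25%) in IMDM+1% FBS. Lytic Nano-Glo luminescence normalized to DMSO and unmodified K562 controls; four-parameter fit gives 50%-abundance concentration (IC50).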

[3] = test system: HiBiT-tagged HTT protein; test: HiBiT protein abundance assay, HTT (K562 HiBiT knock-in); format: cell-based, human; conditions: HiBiT knock-in cells, 24 hours
Procedure, shortened: as §1

[4] = test system: K562 cells; test: Cell viability, Cell Titer Glo 2.0 assay, K562; conditions: 72 hours
Protocol: Compounds described herein were screened for toxicity in K562 (human chronic myelogenous leukemia) and SH-SY5Y (human neuroblastoma) cells using a Cell Titer Glo 2.0 assay.
• Promega CellTiter-Glo® 2.0 Cell Viability Assay (cat #G9241) • Corning 384-well TC-treated microplates (cat #3570)
Cells were plated at 500 cells/well (K562 cells) in 45 μL of IMDM supplemented with 10% FBS in a 384-well opaque plate. Wells containing only medium were used as a blank control. Test compounds (e.g., compounds of Formula (I) or (II)) were first serially diluted in DMSO then diluted 1:100 with IMDM+10% FBS. The final concentration of DMSO was 0.1% in each well. The cells were incubated for 72 hours at 37° C. and 5% CO2 before assaying with Cell Titer Glo 2.0 reagent.

| SMILES | IC50 [1] [µM] | IC50 [2] [µM] | IC50 [3] [µM] | Effect on Cell Viability, K562 [4] |
| --- | --- | --- | --- | --- |
| C[C@@H]1CN(c2cnc3nc(-c4cc(C#N)c5nn(C)cc5c4)cc(Cl)c3c2)C[C@H](C)N1 [Compound 325, 5-(4-chloro-6-((3R,5S)-3,5-dimethylpiperazin-1-yl)-1,8-naphthyridin-2-yl)-2-methyl-2H-indazole-7-carbonitrile 2,2,2-trifluoroacetate] | < 0.1 | 0.1 to 1 | 1 to 10 | C (1000-9999 nM) |
| CN[C@@H]1CN(c2cnc3nc(-c4cc5cn(C)nc5c(C)c4O)ccc3c2)C[C@H]1C [Compound 126, 2,7-dimethyl-5-{6-[(3R,4S)-3-methyl-4-(methylamino)382pyrrolidine-1-yl]-1,8-naphthyridin-2-yl}indazol-6-ol] | < 0.1 | 0.1 to 1 | 0.1 to 1 | B (100-1000 nM) |
| Cc1cn2cc(-c3cc(Cl)c4cc(N5C[C@@H](C)N[C@@H](C)C5)cnc4n3)cc(F)c2n1 [Compound 297] | < 0.1 | 0.1 to 1 | 0.1 to 1 | B (100-1000 nM) |
| CN[C@H]1CN(c2cnc3nc(-c4cc5cn(C)nc5c(C)c4O)ccc3c2)C[C@@H]1F (single isomer, unassigned) [Compound 131] | < 0.1 | 0.1 to 1 | 1 to 10 | C (1000-9999 nM) |
| CN[C@H]1CN(c2cnc3nc(-c4cc5cn(C)nc5c(C)c4O)ccc3c2)C[C@H]1C [Compound 125, 2,7-dimethyl-5-{6-[(3R,4R)-3-methyl-4-(methylamino)379pyrrolidine-1-yl]-1,8-naphthyridin-2-yl}indazol-6-ol] | < 0.1 | < 0.1 | < 0.1 | A (<100 nM) |
| Cc1c(O)c(-c2cc(Cl)c3cc(N4C[C@@H](C)N[C@@H](C)C4)cnc3n2)cc2cn(C)nc12 [Compound 149] | < 0.1 | < 0.1 | 0.1 to 1 | B (100-1000 nM) |
| CCN[C@@H]1CCN(c2cnc3nc(-c4cc5cn(C)nc5c(C)c4O)ccc3c2)C1 [Compound 124] | < 0.1 | < 0.1 | < 0.1 | A (<100 nM) |
| Cc1cn2nc(-c3cc(Cl)c4cc(N5CCC(N6CCC6)CC5)cnc4n3)cc(C)c2n1 [Compound 349] | < 0.1 | < 0.1 | 0.1 to 1 | B (100-1000 nM) |
| CCN[C@H]1CCN(c2cnc3nc(-c4cc5cn(C)nc5cc4O)cc(Cl)c3c2)C1 [Compound 318] | < 0.1 | < 0.1 | 0.1 to 1 | A (<100 nM) |
| C[C@@H]1CN(c2cnc3nc(-c4cc5cn(C)nc5c(F)c4O)cc(C4CC4)c3c2)C[C@H](C)N1 [Compound 305, 5-{4-cyclopropyl-6-[(3R,5S)-3,5-dimethylpiperazin-1-yl]-1,8-naphthyridin-2-yl}-7-fluoro-2-methylindazol-6-ol] | < 0.1 | 0.1 to 1 | 1 to 10 | C (1000-9999 nM) |
| Cc1c(O)c(-c2ccc3cc(N4CCC(N(C)C)CC4)cnc3n2)cc2cn(C)nc12 [Compound 138, 5-{6-[4-(dimethylamino)piperidin-1-yl]-1,8-naphthyridin-2-yl}-2,7-dimethylindazol-6-ol] | < 0.1 | < 0.1 | 0.1 to 1 | A (<100 nM) |
| Cn1cc2cc(-c3cc(Cl)c4cc(N5CCNC6(CC6)C5)cnc4n3)c(O)c(F)c2n1 [Compound 274] | < 0.1 | < 0.1 | 0.1 to 1 | B (100-1000 nM) |
| Cn1cc2cc(-c3ccc4cc(N5CC[C@H](NCC6CC6)C5)cnc4n3)c(O)cc2n1 [Compound 314] | < 0.1 | 0.1 to 1 | 0.1 to 1 | B (100-1000 nM) |
| C[C@@H]1CN(c2cnc3nc(-c4cc5cn(C)nc5c(F)c4O)cc(Cl)c3c2)C[C@@H](C)N1 [Compound 281] | < 0.1 | < 0.1 | < 0.1 | A (<100 nM) |
| Cc1c(O)c(-c2ccc3c(Cl)c(N4CCNCC4)cnc3n2)cc2cn(C)nc12 [Compound 278, 5-[5-chloro-6-(piperazin-1-yl)-1,8-naphthyridin-2-yl]-2,7-dimethylindazol-6-ol] | < 0.1 | < 0.1 | 0.1 to 1 | A (<100 nM) |
| CNC(=O)c1cc(-c2cc3cn(C)nc3c(C)c2O)nc2ncc(N3CCNCC3)cc12 [Compound 150, 2-(6-hydroxy-2,7-dimethylindazol-5-yl)-N-methyl-6-(piperazin-1-yl)-1,8-naphthyridine-4-carboxamide] | 1 to 10 | > 10 | > 10 | D (greater than 10 μM) |
| CN[C@H]1CN(c2cnc3nc(-c4cc5cn(C)nc5c(C)c4O)ccc3c2)C[C@@H]1C [Compound 127, 2,7-dimethyl-5-{6-[(3S,4R)-3-methyl-4-(methylamino)384pyrrolidine-1-yl]-1,8-naphthyridin-2-yl}indazol-6-ol] | < 0.1 | < 0.1 | < 0.1 | A (<100 nM) |
| Cc1c(O)c(-c2cc(Cl)c3cc(N4CCC(N(C)C)C4)cnc3n2)cc2cn(C)nc12 (stereo not drawn) [Compound 143, 5-{4-chloro-6-[3-(dimethylamino)357pyrrolidine-1-yl]-1,8-naphthyridin-2-yl}-2,7-dimethylindazol-6-ol] | < 0.1 | < 0.1 | 0.1 to 1 | B (100-1000 nM) |
| Cc1c(O)c(-c2cc(Cl)c3cc(N4CCNC(C)C4)cnc3n2)cc2cn(C)nc12 (stereo not drawn) [Compound 147] | < 0.1 | 0.1 to 1 | 0.1 to 1 | B (100-1000 nM) |
| Cc1cn2nc(-c3ccc4cc(N5C[C@@H](C)N[C@@H](C)C5)cnc4n3)cc(C)c2n1 [Compound 330] | < 0.1 | 0.1 to 1 | 0.1 to 1 | B (100-1000 nM) |
| CN[C@@H]1CCN(c2cnc3nc(-c4cc5cn(C)nc5c(C)c4O)ncc3c2)C1 [Compound 107, 2,7-dimethyl-5-{6-[(3R)-3-(methylamino)pyrrolidin-1-yl]pyrido[2,3-d]pyrimidin-2-yl}indazol-6-ol hydrochloride] | < 0.1 | < 0.1 | < 0.1 | A (<100 nM) |
| C[C@H]1CN(c2cnc3nc(-c4cc5cn(C)nc5c(F)c4O)cc(Cl)c3c2)C[C@H](C)N1 [Compound 280] | < 0.1 | < 0.1 | < 0.1 | A (<100 nM) |
| CN[C@H]1CN(c2cnc3nc(-c4cc5cn(C)nc5c(C)c4O)ccc3c2)C[C@H]1F [Compound 129, 5-{6-[(3R,4S)-3-fluoro-4-(methylamino)pyrrolidin-1-yl]-1,8-naphthyridin-2-yl}-2,7-dimethylindazol-6-ol] | < 0.1 | 0.1 to 1 | 0.1 to 1 | B (100-1000 nM) |
| Cc1c(O)c(-c2cc(Cl)c3cc(N(C)[C@@H]4CCNC4)cnc3n2)cc2cn(C)nc12.Cl [Compound 293] | < 0.1 | 0.1 to 1 | 0.1 to 1 | B (100-1000 nM) |

Reference: patent US20250326748A1, “COMPOUNDS AND METHODS FOR MODULATING SPLICING” (REMIX THERAPEUTICS INC., priority 2022, published 2025)
